Reference: PubChem BioAssay AID1259407 (Chemical Carcinogenesis Research Information System (CCRIS), 2018)
Activity calls are given as the source filed them. The rule behind the calls is not given here.

Tested on: CCRIS mutagenicity, Ames/micronucleus/aberration tests
Assay: CCRIS mutagenicity studies
[1] = Test System: AMES SALMONELLA TYPHIMURIUM, Strain/Indicator: TA98, Metabolic Activation: NONE, Method: PREINCUBATION
[2] = Test System: AMES SALMONELLA TYPHIMURIUM, Strain/Indicator: TA100, Metabolic Activation: NONE, Method: PREINCUBATION
[3] = Test System: AMES SALMONELLA TYPHIMURIUM, Strain/Indicator: TA98, Metabolic Activation: NONE, Method: STANDARD PLATE
[4] = Test System: AMES SALMONELLA TYPHIMURIUM, Strain/Indicator: TA100, Metabolic Activation: NONE, Method: STANDARD PLATE

## O[C@H]1C=Cc2c(ccc3nc4ccc5ccccc5c4cc23)[C@@H]1O
Test System: AMES SALMONELLA TYPHIMURIUM, Strain/Indicator: TA98, Metabolic Activation: GUINEA PIG, LIVER, S-9, 3-METHYLCHOLANTHRENE, Method: STANDARD PLATE
  mutagenic call: inactive; negative
Test System: AMES SALMONELLA TYPHIMURIUM, Strain/Indicator: TA100, Metabolic Activation: GUINEA PIG, LIVER, S-9, 3-METHYLCHOLANTHRENE, Method: STANDARD PLATE
  mutagenic call: active; positive
Test System: CHINESE HAMSTER V-79, Strain/Indicator: V-79/6-THIOGUANINE, Metabolic Activation: GUINEA PIG, LIVER, S-9, 3-METHYLCHOLANTHRENE
  mutagenic call: active; positive

## O=C(OCc1ccccc1[N+](=O)[O-])c1ccccc1
[1]
  mutagenic call: inactive; negative
[2]
  mutagenic call: inactive; negative
Test System: AMES SALMONELLA TYPHIMURIUM, Strain/Indicator: TA100, Metabolic Activation: RAT, LIVER, S-9, AROCLOR 1254, Method: PREINCUBATION
  mutagenic call: inactive; negative

## CCOC(=O)CC(SP(=O)(OC)OC)C(=O)OCC (stereo unspecified)
End Point: IN VITRO CHROMOSOMAL ABERRATIONS, Test System: CHO CELLS, Metabolic Activation: NONE
  mutagenic call: inactive; negative
Test System: AMES SALMONELLA TYPHIMURIUM, Strain/Indicator: TA97, Metabolic Activation: HAMSTER, LIVER, S-9, AROCLOR 1254 (10 OR 30%), Method: PREINCUBATION
  mutagenic call: inactive; negative
Test System: AMES SALMONELLA TYPHIMURIUM, Strain/Indicator: TA97, Metabolic Activation: NONE, Method: PREINCUBATION
  mutagenic call: inactive; negative
Test System: AMES SALMONELLA TYPHIMURIUM, Strain/Indicator: TA97, Metabolic Activation: RAT, LIVER, S-9, AROCLOR 1254 (10 OR 30%), Method: PREINCUBATION
  mutagenic call: inactive; negative
Test System: AMES SALMONELLA TYPHIMURIUM, Strain/Indicator: TA98, Metabolic Activation: HAMSTER, LIVER, S-9, AROCLOR 1254 (10 OR 30%), Method: PREINCUBATION
  mutagenic call: inactive; negative
[1]
  mutagenic call: inactive; negative
[3]
  mutagenic call: inactive; negative
Test System: AMES SALMONELLA TYPHIMURIUM, Strain/Indicator: TA98, Metabolic Activation: RAT, LIVER, S-9, AROCLOR 1254 (10 OR 30%), Method: PREINCUBATION
  mutagenic call: inactive; negative
Test System: AMES SALMONELLA TYPHIMURIUM, Strain/Indicator: TA98, Metabolic Activation: RAT, LIVER, S-9, Method: STANDARD PLATE
  mutagenic call: active; positive
Test System: AMES SALMONELLA TYPHIMURIUM, Strain/Indicator: TA100, Metabolic Activation: HAMSTER, LIVER, S-9, AROCLOR 1254 (10 OR 30%), Method: PREINCUBATION
  mutagenic call: inactive; negative
[2]
  mutagenic call: inactive; negative
[4]
  mutagenic call: active; positive
Test System: AMES SALMONELLA TYPHIMURIUM, Strain/Indicator: TA100, Metabolic Activation: RAT, LIVER, S-9, AROCLOR 1254 (10 OR 30%), Method: PREINCUBATION
  mutagenic call: inactive; negative
Test System: AMES SALMONELLA TYPHIMURIUM, Strain/Indicator: TA100, Metabolic Activation: RAT, LIVER, S-9, Method: STANDARD PLATE
  mutagenic call: inactive; negative
Test System: AMES SALMONELLA TYPHIMURIUM, Strain/Indicator: TA1535, Metabolic Activation: HAMSTER, LIVER, S-9, AROCLOR 1254 (10 OR 30%), Method: PREINCUBATION
  mutagenic call: inactive; negative
Test System: AMES SALMONELLA TYPHIMURIUM, Strain/Indicator: TA1535, Metabolic Activation: NONE, Method: PREINCUBATION
  mutagenic call: inactive; negative
Test System: AMES SALMONELLA TYPHIMURIUM, Strain/Indicator: TA1535, Metabolic Activation: RAT, LIVER, S-9, AROCLOR 1254 (10 OR 30%), Method: PREINCUBATION
  mutagenic call: inactive; negative

## COc1ccc(CNCC(O)COc2ccc3[nH]c(=O)ccc3c2)cc1OC (stereo unspecified)
[3]
  mutagenic call: inactive; negative
Test System: AMES SALMONELLA TYPHIMURIUM, Strain/Indicator: TA98, Metabolic Activation: RAT, LIVER, S-9, AROCLOR 1254, Method: STANDARD PLATE
  mutagenic call: inactive; negative
[4]
  mutagenic call: inactive; negative
Test System: AMES SALMONELLA TYPHIMURIUM, Strain/Indicator: TA100, Metabolic Activation: RAT, LIVER, S-9, AROCLOR 1254, Method: STANDARD PLATE
  mutagenic call: inactive; negative
Test System: AMES SALMONELLA TYPHIMURIUM, Strain/Indicator: TA1535, Metabolic Activation: NONE, Method: STANDARD PLATE
  mutagenic call: inactive; negative
Test System: AMES SALMONELLA TYPHIMURIUM, Strain/Indicator: TA1535, Metabolic Activation: RAT, LIVER, S-9, AROCLOR 1254, Method: STANDARD PLATE
  mutagenic call: inactive; negative
Test System: AMES SALMONELLA TYPHIMURIUM, Strain/Indicator: TA1537, Metabolic Activation: NONE, Method: STANDARD PLATE
  mutagenic call: inactive; negative
Test System: AMES SALMONELLA TYPHIMURIUM, Strain/Indicator: TA1537, Metabolic Activation: RAT, LIVER, S-9, AROCLOR 1254, Method: STANDARD PLATE
  mutagenic call: inactive; negative
Test System: AMES SALMONELLA TYPHIMURIUM, Strain/Indicator: TA1538, Metabolic Activation: NONE, Method: STANDARD PLATE
  mutagenic call: inactive; negative
Test System: AMES SALMONELLA TYPHIMURIUM, Strain/Indicator: TA1538, Metabolic Activation: RAT, LIVER, S-9, AROCLOR 1254, Method: STANDARD PLATE
  mutagenic call: inactive; negative
Test System: E. COLI, Strain/Indicator: WP2 UVRA, Metabolic Activation: NONE, Method: STANDARD PLATE
  mutagenic call: inactive; negative
Test System: E. COLI, Strain/Indicator: WP2 UVRA, Metabolic Activation: RAT, LIVER, S-9, AROCLOR 1254, Method: STANDARD PLATE
  mutagenic call: inactive; negative
Test System: MOUSE LYMPHOMA, Strain/Indicator: L5178Y (TK+/TK-), Metabolic Activation: NONE, Method: SUSPENSION/PLATE
  mutagenic call: active; positive
